The results in this text go back to patent US8822503B2, “2-pyridone compounds” (Taisho Pharmaceutical Co., Ltd, priority 2009, dated 2014).

The term EC50 denotes the concentration needed to bring the measured effect to its halfway point.

Structures are written as SMILES.

This assay has as its target T1, human liver GK (Homo sapiens, UniProt P35557).
T1 construct: GST (glutathione S-transferase) (N); made in house; host or cells: E. coli
T1 sequence (P35557 1-466 isoform P35557-2): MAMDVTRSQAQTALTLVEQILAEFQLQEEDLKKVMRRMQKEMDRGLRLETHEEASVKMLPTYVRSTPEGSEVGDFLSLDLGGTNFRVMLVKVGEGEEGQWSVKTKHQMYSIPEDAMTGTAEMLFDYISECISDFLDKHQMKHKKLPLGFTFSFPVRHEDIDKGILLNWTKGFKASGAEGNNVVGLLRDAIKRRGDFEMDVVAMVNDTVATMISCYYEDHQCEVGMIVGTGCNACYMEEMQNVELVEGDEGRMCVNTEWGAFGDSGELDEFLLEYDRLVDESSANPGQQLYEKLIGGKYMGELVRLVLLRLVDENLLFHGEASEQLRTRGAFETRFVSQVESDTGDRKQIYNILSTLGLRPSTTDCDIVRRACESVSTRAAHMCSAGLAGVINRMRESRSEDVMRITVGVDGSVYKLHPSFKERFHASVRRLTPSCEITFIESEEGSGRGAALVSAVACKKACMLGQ
Description: GK activation test. The conditions noted are these: test compound concentration needed to activate 50% of maximum activation ability; 4 mM 14C-labeled glucose, 2 mM ATP, room temperature, 20 minutes. Type of assay: biochemical. The method in brief: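 GST-tagged human liver GK from E. coli (0.24 μg/well) with 4 mM 14C-glucose, 2 mM ATP in Hepes-KOH pH 7.1, KCl, MgCl2, DTT, 1% DMSO, 20 min room temperature. Labeled glucose 6-phosphate captured on anion resin, eluted and counted. EC50 = concentration giving half of maximal activation.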
In turn, `O=C(C1CC1)N1CC[C@H](/C=C(\c2ccc(Cl)cc2)c2ccc(C3CC3)c(=O)[nH]2)C1` [Example 4-78, 6-{(E)-1-(4-Chlorophenyl)-2-[(3R)-1-(cyclopropylcarbonyl)pyrrolidin-3-yl]ethenyl}-3-cyclopropylpyridin-2(1H)-one] had an EC50 of 10 to 500 nM.
Regarding `O=c1[nH]c(/C(=C/C2CCCC2)c2ccc(SC3CC3)cc2)ccc1Cl` [Example 1-103, 3-Chloro-6-{(E)-2-cyclopentyl-1-[4-(cyclopropylsulfanyl)phenyl]ethenyl}pyridin-2(1H)-one], the EC50 lay within 10 to 500 nM.
To `CCN1CC(Sc2ccc(/C(=C\C3CCCC3)c3ccc(C)c(=O)[nH]3)cc2)C1` [Example 1-31, 6-[(E)-2-Cyclopentyl-1-{4-[(1-ethylazetidin-3-yl)sulfanyl]phenyl}ethenyl]-3-methylpyridin-2(1H)-one] belongs 500 to 3000 nM.
Consider `O=C1CC[C@H](/C=C(\c2ccc(OC(F)F)c(Cl)c2)c2ccc(C3CC3)c(=O)[nH]2)N1` [Example 4-281, 6-{(E)-1-[3-Chloro-4-(difluoromethoxy)phenyl]-2-[(2R)-5-oxopyrrolidin-2-yl]ethenyl}-3-cyclopropylpyridin-2(1H)-one], for which the EC50 is 10 to 500 nM.
The compound `CSc1ccc(/C(=C\[C@H]2CCC(=O)C2)c2ccc(C(C)C)c(=O)[nH]2)cc1` [Example 1-64, 6-{(E)-1-[4-(Methylsulfanyl)phenyl]-2-[(1S)-3-oxocyclopentyl]ethenyl}-3-(propan-2-yl)pyridin-2(1H)-one] came in with an EC50 of 10 to 500 nM.
Under `O=C1CC[C@H](/C=C(\c2ccc(SC3CCCC3)cc2)c2ccc(Cl)c(=O)[nH]2)N1` [Example 4-33, 3-Chloro-6-{(E)-1-[4-(cyclopentylsulfanyl)phenyl]-2-[(2R)-5-oxopyrrolidin-2-yl]ethenyl}pyridin-2(1H)-one] stands 10 to 500 nM.
`O=C1CC[C@H](/C=C(\c2cccc(C(F)(F)F)c2)c2ccc(Cl)c(=O)[nH]2)N1` [Example 4-261, 3-Chloro-6-{(E)-2-[(2R)-5-oxopyrrolidin-2-yl]-1-[3-(trifluoromethyl)phenyl]ethenyl}pyridin-2(1H)-one] registered an EC50 of 3000 to 10000 nM.
`CN1C(=O)CC[C@@H]1/C=C(\c1ccc(C(C)(C)C)cc1)c1ccc(Cl)c(=O)[nH]1` [Example 4-146, 6-{(E)-1-(4-tert-Butylphenyl)-2-[(2R)-1-methyl-5-oxopyrrolidin-2-yl]ethenyl}-3-chloropyridin-2(1H)-one]: the EC50 lay in the range of 10 to 500 nM.
To `O=C1CC[C@H](CC(c2ccc(OC(F)F)cc2)c2ccc(C3CC3)c(=O)[nH]2)N1` (single isomer, unassigned) [Example 4-229] belongs 500 to 3000 nM.
Under `O=C1CC[C@H](/C=C(\c2cccc(OCCCCO)c2)c2ccc(C3CC3)c(=O)[nH]2)N1` [Example 4-9, 3-Cyclopropyl-6-{(E)-1-[3-(4-hydroxybutoxy)phenyl]-2-[(2R)-5-oxopyrrolidin-2-yl]ethenyl}pyridin-2(1H)-one] stands 500 to 3000 nM; under `O=C1CC[C@H](/C=C(\c2ccc(Cl)cc2)c2ccc(-c3cn[nH]c3)c(=O)[nH]2)N1` [Example 4-359, 6-{(E)-1-(4-Chlorophenyl)-2-[(2R)-5-oxopyrrolidin-2-yl]ethenyl}-3-(1H-pyrazol-4-yl)pyridin-2(1H)-one], 10 to 500 nM; under `Cc1ccc(C(CC2CCCC2)c2ccc(S(C)(=O)=O)cc2)[nH]c1=O` (centres unmarked) [Example 2-2, 6-{2-Cyclopentyl-1-[4-(methylsulfonyl)phenyl]ethyl}-3-methylpyridin-2(1H)-one], 500 to 3000 nM.
`O=C1CC[C@H](/C=C(\c2ccc(C(F)(F)F)cn2)c2ccc(C3CC3)c(=O)[nH]2)N1` [Example 4-172, 3-Cyclopropyl-6-{(Z)-2-[(2R)-5-oxopyrrolidin-2-yl]-1-[5-(trifluoromethyl)pyridin-2-yl]ethenyl}pyridin-2(1H)-one] gave an EC50 of 500 to 3000 nM.
The compound `CCCc1ccc(C(C[C@H]2CCC(=O)N2)c2ccc(C(F)(F)F)cc2)[nH]c1=O` (single isomer, unassigned) [Example 4-243] came in with an EC50 of 3000 to 10000 nM.
Regarding `O=C1CC[C@H](/C=C(\c2ccc(F)c(Cl)c2)c2ccc(C3CC3)c(=O)[nH]2)N1` [Example 4-104, 6-{(E)-1-(3-Chloro-4-fluorophenyl)-2-[(2R)-5-oxopyrrolidin-2-yl]ethenyl}-3-cyclopropylpyridin-2(1H)-one], the EC50 lay in the range of 500 to 3000 nM.
To `CCS(=O)(=O)N1CC[C@H](/C=C(\c2ccc(C(C)(C)C)cc2)c2ccc(Cl)c(=O)[nH]2)C1` [Example 4-72, 6-{(E)-1-(4-tert-Butylphenyl)-2-[(3R)-1-(ethylsulfonyl)pyrrolidin-3-yl]ethenyl}-3-chloropyridin-2(1H)-one] belongs 10 to 500 nM; to `Cc1cc(C(C[C@H]2CCC(=O)N2)c2ccc(C3CC3)c(=O)[nH]2)ccc1F` (single isomer, unassigned) [Example 4-224], 3000 to 10000 nM.
`Cc1cc(/C(=C\[C@H]2CCC(=O)N2)c2ccc(C3CC3)c(=O)[nH]2)ccc1F` [Example 4-113, 3-Cyclopropyl-6-{(E)-1-(4-fluoro-3-methylphenyl)-2-[(2R)-5-oxopyrrolidin-2-yl]ethenyl}pyridin-2(1H)-one] returned an EC50 of 500 to 3000 nM.
With `O=C1CC[C@H](/C=C(\c2ccc(OC3CCOCC3)c(Cl)c2)c2ccc(C3CC3)c(=O)[nH]2)N1` [Example 4-143, 6-{(E)-1-[3-Chloro-4-(tetrahydro-2H-pyran-4-yloxy)phenyl]-2-[(2R)-5-oxopyrrolidin-2-yl]ethenyl}-3-cyclopropylpyridin-2(1H)-one], the EC50 was 10 to 500 nM.
In turn, `CC(C)Cn1cc(-c2ccc(/C(=C/[C@H]3CCC(=O)N3)c3ccc(C(C)(C)C)cc3)[nH]c2=O)cn1` [Example 4-182, 6-{(E)-1-(4-tert-Butylphenyl)-2-[(2R)-5-oxopyrrolidin-2-yl]ethenyl}-3-[1-(2-methylpropyl)-1H-pyrazol-4-yl]pyridin-2(1H)-one] showed an EC50 of 500 to 3000 nM.
`CC(C)(C)c1ccc(C(C[C@H]2CCC(=O)N2)c2ccc(Cl)c(=O)[nH]2)cc1` (single isomer, unassigned) [Example 4-69] came in with an EC50 of 3000 to 10000 nM.
Under `CSc1ccc(/C(=C\[C@H]2CCC(=O)N2)c2ccc(Cl)c(=O)[nH]2)cc1C(F)(F)F` [Example 4-35, 3-Chloro-6-{(E)-1-[4-(methylsulfanyl)-3-(trifluoromethyl)phenyl]-2-[(2R)-5-oxopyrrolidin-2-yl]ethenyl}pyridin-2(1H)-one] stands 500 to 3000 nM; under `O=C1CC[C@H](/C=C(\c2ccc(CCCCO)cc2)c2ccc(Cl)c(=O)[nH]2)N1` [Example 4-26, 3-Chloro-6-{(E)-1-[4-(4-hydroxybutyl)phenyl]-2-[(2R)-5-oxopyrrolidin-2-yl]ethenyl}pyridin-2(1H)-one], 500 to 3000 nM.
The compound `CC(C)Oc1ccc(C(C[C@H]2CCC(=O)N2)c2ccc(C3CC3)c(=O)[nH]2)cc1` (single isomer, unassigned) [Example 4-348] showed an EC50 of 500 to 3000 nM.
As for `Cc1cc(C(C[C@H]2CCC(=O)N2)c2ccc(C3CC3)c(=O)[nH]2)ccc1Cl` (single isomer, unassigned) [Example 4-213], the EC50 fell in the range of 500 to 3000 nM.
For the compound `CC(C)(C)c1ccc(/C(=C\CN2CCOCC2)c2ccc(Cl)c(=O)[nH]2)cc1` [Example 6-5, 6-[(1E)-1-(4-tert-Butylphenyl)-3-(morpholin-4-yl)prop-1-en-1-yl]-3-chloropyridin-2(1H)-one], the EC50 fell in the range of 3000 to 10000 nM.
